Source: paper PMC4742234, “Screening of Drug Metabolizing Enzymes for the Ginsenoside Compound K In Vitro: An Efficient Anti-Cancer Substance Originating from Panax Ginseng” (PLoS ONE, 2016)

Experiments:
[1] = system: CYP3A4; set-up: method as in Hao et al.(2008); details: baculosomes, ref Hao et al.(2008); cited from earlier work
[2] = substrate: CC(C)=CCC[C@](C)(OC1O[C@H](CO)[C@@H](O)[C@H](O)[C@H]1O)[C@H]1CC[C@]2(C)[C@@H]1[C@H](O)C[C@@H]1[C@@]3(C)CC[C@H](O)C(C)(C)[C@@H]3CC[C@]12C; assay: Kinetic analysis of CK metabolism by recombinant CYP2C9; type: in vitro ADME, human; details: other: recombinant CYP2C9 10 pmol, CK 10–100 μM; pH 7.4; 37.0 °C
Protocol: The method was conducted according to our previous study with some modifications. The CYP isoform-specific probe reactions used were phenacetin O-deethylation (for CYP1A2), coumarin 7-hydroxylation (for CYP2A6), tolbutamide 4-hydroxylation (for CYP2C9), metoprolol α-hydroxylation (for CYP2D6), chlorzoxazone 6-hydroxylation (for CYP2E1),S-Mephenytoin 4-hydroxylation (for CYP2C19), and midazolam 1-hydroxylation (for CYP3A4). The kinetic study of CK was conducted with HLMs. A 0.2 mL incubation mixture that consisted of CK (as a substrate), the HLMs (0.5 mg/mL) or CYP isoforms (10 pmol), and 0.1 M sodium phosphate buffer (pH 7.4) was pre-warmed for 5 min at 37°C. The reaction was initiated by the addition of 1 mg/mL triphosphopyridine nucleotide (NADPH). […]
The kinetic parameters for the metabolism of CK were determined by incubating increasing concentrations of CK (10–100 μM) at 37°C with the HLMs and NADPH under the incubation conditions as described in detail previously. The equation of CK reaction velocity (V) in the HLMs or CYP isoforms is expressed as V = (C0–Ct)/T/Cp, where C0and Ct are the initial and final concentrations of CK in the incubation solution, respectively, T is the incubation time (min), and Cp is the protein concentration (mg/mL or nmol). All values were expressed as the mean±standard deviation (SD). […]

Molecule | CYP3A4 inhibition [1] | Km [2] [µM]
CC(C)=CCC[C@](C)(O)[C@H]1CC[C@]2(C)[C@@H]1[C@H](O)C[C@@H]1[C@@]3(C)CC[C@H](O[C@@H]4O[C@H](CO)[C@@H](O)[C@H](O)[C@H]4O)C(C)(C)[C@@H]3CC[C@]12C [Rh2, reference compound] | moderate | –
recombinant CYP2C9 (Homo sapiens) (protein, purchased Cypex Ltd. (U.K.)) MDSLVVLVLCLSCLLLLSLWRQSSGRGKLPPGPTPLPVIGNILQIGIKDISKSLTNLSKVYGPVFTLYFGLKPIVVLHGYEAVKEALIDLGEEFSGRGIFPLAERANRGFGIVFSNGKKWKEIRRFSLMTLRNFGMGKRSIEDRVQEEARCLVEELRKTKASPCDPTFILGCAPCNVICSIIFHKRFDYKDQQFLNLMEKLNENIKILSSPWIQICNNFSPIIDYFPGTHNKLLKNVAFMKSYILEKVKEHQESMDMNNPQDFIDCFLMKMEKEKHNQPSEFTIESLENTAVDLFGAGTETTSTTLRYALLLLLKHPEVTAKVQEEIERVIGRNRSPCMQDRSHMPYTDAVVHEVQRYIDLLPTSLPHAVTCDIKFRNYLIPKGTTILISLTSVLHDNKEFPNPEMFDPHHFLDEGGNFKKSKYFMPFSAGKRICVGEALAGMELFLFLTSILQNFNLKSLVDPKNLDTTPVVNGFASVPPFYQLCFIPV | – | 34.63 ± 10.48
